Test results published in ChEMBL document CHEMBL6103657, “Discovery of a Potent SARM1 Base-Exchange Inhibitor with In Vivo Efficacy” (J Med Chem, 2025).

Tests used:
physchem [1] = conditions: buffer, pH 6.5
physchem [2] = conditions: octanol/aqueous buffer, pH 7.4

SMILES | solubility (physchem [1]) [µg/mL] | logD (physchem [2])
C[C@@H](c1ccncc1)N(C)/C(=N\C#N)NC1COCC1(F)F (stereo partly specified) | > 309 | 0.9
CN(Cc1ccncc1)C(=O)NC1COCC1(F)F (stereo unspecified) | > 271 | 0.3
CC[C@@H](c1ccncc1)N(C)C(=O)N[C@@H]1COCC1(F)F | > 299 | 0.73
